# From US20260083704A1, “LXR MODULATORS WITH BICYCLIC CORE MOIETY FOR TREATING DYSLIPIDEMIAS” (OrsoBio, Inc., priority 2022, published 2026)
# Assays:
# LXRβ = target: T1, LXRβ (Homo sapiens, UniProt P55055); assay: LXR Gal4 reporter transient transfection assay (mammalian two-hybrid, HEK293), LXRβ; assay type: cell-based; design: LXRβ (amino acids 156-461); expressed in transfected cells; host or cells: HEK293; details: full length (FL) LXRβ, HEK293; read-out: FL-M2H Gal4β
# T1 sequence (P55055 1-460): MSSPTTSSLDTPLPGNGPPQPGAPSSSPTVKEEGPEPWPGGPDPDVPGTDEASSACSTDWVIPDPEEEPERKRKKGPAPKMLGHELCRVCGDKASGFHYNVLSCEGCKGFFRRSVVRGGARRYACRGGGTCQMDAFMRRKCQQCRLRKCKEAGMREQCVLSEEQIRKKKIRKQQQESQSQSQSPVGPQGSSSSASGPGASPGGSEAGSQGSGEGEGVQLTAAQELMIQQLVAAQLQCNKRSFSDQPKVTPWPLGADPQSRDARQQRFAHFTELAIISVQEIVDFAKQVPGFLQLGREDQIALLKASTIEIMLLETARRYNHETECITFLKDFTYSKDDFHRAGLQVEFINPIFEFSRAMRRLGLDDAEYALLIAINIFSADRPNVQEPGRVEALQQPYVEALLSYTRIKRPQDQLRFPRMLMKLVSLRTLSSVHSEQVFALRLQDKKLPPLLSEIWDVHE
# How it was run: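 HEK293 cells transiently co-transfected with full-length or LBD LXRα/LXRβ fused to NFkB activation domain, GAL4-DBD-fused SRC1 or NCoR cofactor domain, GAL4-responsive firefly luciferase reporter and Renilla control. Compound added 4 h post-transfection (≤0.2% DMSO), incubated 16 h; firefly and Renilla luminescence read sequentially.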
# [1] = target: T2, GST-LXRβ ligand-binding domain (Homo sapiens, UniProt P55055); assay: TR-FRETβ activity assay (NCoA3 coactivator peptide recruitment); assay type: biochemical; details: 1 μM 24(S)-25-epoxycholesterol prestimulation
# T2 construct: amino acids 156-461; NP009052; made in house; host or cells: E. coli
# T2 sequence (P55055 156-460 limits assumed): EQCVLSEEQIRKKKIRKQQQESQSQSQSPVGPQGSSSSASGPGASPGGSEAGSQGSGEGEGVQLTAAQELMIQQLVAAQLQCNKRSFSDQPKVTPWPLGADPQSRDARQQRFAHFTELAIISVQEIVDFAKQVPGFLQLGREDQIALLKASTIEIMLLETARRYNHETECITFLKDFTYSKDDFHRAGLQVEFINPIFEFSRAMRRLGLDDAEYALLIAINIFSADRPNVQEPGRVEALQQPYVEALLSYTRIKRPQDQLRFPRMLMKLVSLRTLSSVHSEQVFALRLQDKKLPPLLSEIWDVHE
# How it was run: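 E. coli-expressed GST-LXRβ LBD (aa 156-461, 76 nM) with biotinylated NCoA3 peptide (400 nM) in Tris/HCl pH 6.8 containing 1 μM 24(S)-25-epoxycholesterol agonist. Compounds tested at 50 μM down to 0.002 μM in triplicate. TR-FRET (Tb cryptate/XL665, ex 340, em 615/665 nm) read after 1 h at 4° C.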
smiles,measurement,setting,value
N#Cc1sccc1-c1c(-c2cccc(-c3cc(F)c(C(=O)O)cc3Cl)c2)n(S(=O)(=O)c2ccc(CF)cc2)c2ccc(F)cc12 [11/7],EC50,LXRβ,< 100 nM
same,EC50,[1],< 100 nM
N#Cc1cccc(C#N)c1-c1c(-c2cccc(-c3ccc(C(=O)O)cc3Cl)c2)n(S(=O)(=O)c2ccc(C(F)F)cc2)c2ccccc12 [11/56],EC50,LXRβ,< 100 nM
same,EC50,[1],< 100 nM
N#Cc1sccc1-c1c(-c2cccc(N3CC(C(=O)O)C3)c2)n(S(=O)(=O)c2ccc(C(F)(F)F)cc2)c2ccc(F)cc12 [3/34],EC50,LXRβ,< 100 nM
same,EC50,[1],100 to 1000 nM
Cc1ccc(S(=O)(=O)n2c(-c3cccc(-c4ccc(C(C)(C)C(=O)O)c(S(C)(=O)=O)c4)c3)c(-c3ccsc3C#N)c3cc(F)ccc32)cc1 [2/18],EC50,LXRβ,< 100 nM
same,EC50,[1],100 to 1000 nM
CC(O)(C(=O)O)c1cc(F)c(-c2cccc(-c3c(-c4c(C#N)cccc4C#N)c4cc(F)ccc4n3S(=O)(=O)c3ccc(C(F)F)cc3)c2)c(F)c1 (centres unmarked) [3/72],EC50,LXRβ,< 100 nM
same,EC50,[1],< 100 nM
Cc1ccc(S(=O)(=O)n2c(-c3cccc(-c4ccc(C(C(=O)O)N(C)C)cc4Cl)c3)c(-c3ccsc3C#N)c3cc(F)ccc32)cc1 (centres unmarked) [Compound 3],EC50,LXRβ,< 100 nM
same,EC50,[1],< 100 nM
COCc1sccc1-c1c(-c2cccc(N3CC(C(=O)O)C3)c2)n(S(=O)(=O)c2ccc(C)cc2)c2ccc(F)cc12 [3/6],EC50,LXRβ,100 to 1000 nM
same,EC50,[1],1000 to 10000 nM
O=C(NCCS(=O)(=O)O)C1CC1c1cccc(-c2c(-c3c(Cl)cccc3Cl)c3cc(F)ccc3n2S(=O)(=O)c2ccc(C(F)F)cc2)c1 (centres unmarked) [10/4],EC50,LXRβ,< 100 nM
same,EC50,[1],< 100 nM
COC(=O)C(C)(C)N(C)C(=O)C1CN(c2cccc(-c3c(-c4ccsc4C#N)c4cc(F)ccc4n3S(=O)(=O)c3ccc(C)cc3)c2)C1 [32/2],EC50,LXRβ,100 to 1000 nM
same,EC50,[1],100 to 1000 nM
CC1CCN(S(=O)(=O)n2c(-c3cccc(N4CC(C(=O)O)C4)c3)c(-c3ccsc3C#N)c3cc(F)ccc32)CC1 [3/36],EC50,LXRβ,100 to 1000 nM
same,EC50,[1],1000 to 10000 nM
O=C(O)c1ccc(-c2cccc(-c3c(-c4cccc5oncc45)c4cc(F)ccc4n3S(=O)(=O)c3ccc(C(F)F)cc3)c2)c(Cl)c1 [3/69],EC50,LXRβ,100 to 1000 nM
same,EC50,[1],100 to 1000 nM
Cc1ccc(S(=O)(=O)n2c(-c3cccc(-c4ccc(C(C)(C)N)cc4Cl)c3)c(-c3ccsc3C#N)c3cc(F)ccc32)cc1 [2/2],EC50,LXRβ,100 to 1000 nM
same,EC50,[1],100 to 1000 nM
COc1c(C(=O)O)ccc(-c2cccc(-c3c(-c4ccsc4C#N)c4cc(F)ccc4n3S(=O)(=O)c3ccc(C)cc3)c2)c1Cl [12/5],EC50,LXRβ,< 100 nM
same,EC50,[1],< 100 nM
COc1cccnc1-c1c(-c2cccc(-c3ccc(C(=O)O)cc3Cl)c2)n(S(=O)(=O)c2ccc(C(F)F)cc2)c2ccc(F)cc12 [11/40],EC50,LXRβ,< 100 nM
same,EC50,[1],100 to 1000 nM
Cc1ccc(S(=O)(=O)n2c(-c3cccc(-c4ccc(C(=O)O)cc4Cl)c3)c(-c3ccc(C)cc3C#N)c3cc(F)ccc32)cc1 [11/4],EC50,LXRβ,< 100 nM
same,EC50,[1],100 to 1000 nM
N#Cc1ccccc1-c1c(-c2cccc(-c3ccc(C(=O)O)c(O)c3Cl)c2)n(S(=O)(=O)c2ccc(C(F)F)cc2)c2ccc(F)cc12 [11/32],EC50,LXRβ,< 100 nM
same,EC50,[1],< 100 nM
Cc1ccc(S(=O)(=O)n2c(-c3cccc(N4CC(C)(C(=O)O)C4)c3)c(-c3ccsc3C#N)c3cc(F)ccc32)cc1 [3/37],EC50,LXRβ,< 100 nM
same,EC50,[1],100 to 1000 nM
N#Cc1sccc1-c1c(-c2cccc(N3CC(C(=O)O)C3)c2)n(S(=O)(=O)c2ccc(Cl)cc2)c2ccc(F)cc12 [5/7],EC50,LXRβ,< 100 nM
same,EC50,[1],100 to 1000 nM
Cc1ccc(S(=O)(=O)n2c(-c3cccc(N4CCC(C)(C(=O)O)CC4)c3)c(-c3ccsc3C#N)c3cc(F)ccc32)cc1 [3/50],EC50,LXRβ,< 100 nM
same,EC50,[1],100 to 1000 nM
N#Cc1sccc1-c1c(-c2cccc(N3CC(C(=O)O)C3)c2)n(S(=O)(=O)c2ccc3c(c2)CCC3)c2ccc(F)cc12 [3/12],EC50,LXRβ,< 100 nM
same,EC50,[1],100 to 1000 nM
N#Cc1cccc(C#N)c1-c1c(-c2cccc(-c3ccc(S(=O)(=O)O)cc3Cl)c2)n(S(=O)(=O)c2ccc(C(F)F)cc2)c2ccc(F)cc12 [12/10],EC50,LXRβ,< 100 nM
same,EC50,[1],< 100 nM
N#Cc1sccc1-c1c(-c2cccc(-c3ccc(C(=O)NCCS(=O)(=O)O)cc3Cl)c2)n(S(=O)(=O)c2ccc(C(F)F)cc2)c2ccc(F)cc12 [10/3],EC50,LXRβ,< 100 nM
same,EC50,[1],< 100 nM
